Experiments:
AU565 = test: Growth inhibition assay for breast cancer; type: cell-based; conditions: AU565 (Luminal, Her2+), 96 hours
Source text: (§1) Growth Inhibition Assay for Breast Cancer (BC) (Compound 1). All breast cancer cell lines were maintained and tested in appropriate culture media. The seeding density for each cell line was optimized to ensure assay linearity in 384-well plates.
(§2) Increasing concentrations of Compound 1 were spotted via an acoustic dispenser (EDC ATS-100) into an empty 384-well plate. Compound 1 was spotted in a 10-point serial dilution fashion (3-fold dilution) in duplicate within the plate. The dimethyl sulfoxide (DMSO) concentration was kept constant for a final assay concentration of 0.1% DMSO. Plates were replicated for use against different cell lines and testing periods. After compound plate replication, all plates were sealed (Agilent ThermoLoc) and stored at −20° C. for up to 1 month. When ready for testing, plates were removed from the freezer, thawed, and unsealed just prior to the addition of the test cell.
(§3) Prior to testing, cells were grown and expanded in culture flasks to provide sufficient amounts of starting material. Cells were then diluted to their desired densities and added directly to the Compound 1-spotted 384-well plates. Cells were allowed to grow for 96 hours at 37° C./5% CO2. At the time of setup (t0), initial cell number was assessed via a viability assay (Cell Titer-Glo) and read for luminescence. After 96 hours, cell viability of Compound 1-treated cells was assessed via Cell Titer-Glo and read for luminescence.
(§4) Cell lines were assayed for growth inhibition by Compound 1 for at least two independent tests. All data was normalized and represented as a percentage of the DMSO-treated control cells. […] The potency of Compound 1 in different subtypes of breast cancer cell lines is shown in FIG. 7A, while the correlation of Compound 1 sensitivity to ER, HER, PIK3CA, and TP53 status is shown in FIG. 7B.

BT-474 = test: Growth inhibition assay for breast cancer; type: cell-based; conditions: BT-474 (Luminal, Her2+), 96 hours
Source text: as §1, §2, §3, §4

EFM-19 = test: Growth inhibition assay for breast cancer; type: cell-based; conditions: EFM-19 (Luminal, ER+), 96 hours
Source text: as §1, §2, §3, §4

HCC1143 = test: Growth inhibition assay for breast cancer; type: cell-based; conditions: HCC1143 (Basal, TN), 96 hours
Source text: as §1, §2, §3, §4

HCC1428 = test: Growth inhibition assay for breast cancer; type: cell-based; conditions: HCC1428 (Luminal, ER+), 96 hours
Source text: as §1, §2, §3, §4

HCC1937 = test: Growth inhibition assay for breast cancer; type: cell-based; conditions: HCC1937 (Basal, TN), 96 hours
Source text: as §1, §2, §3, §4

MCF10A = test: Growth inhibition assay for breast cancer; type: cell-based; conditions: MCF10A (Basal, TN), 96 hours
Source text: as §1, §2, §3, §4

MCF7 = test: Growth inhibition assay for breast cancer; type: cell-based; conditions: MCF7 (Luminal, ER+), 96 hours
Source text: as §1, §2, §3, §4

MDA-MB-134-VI = test: Growth inhibition assay for breast cancer; type: cell-based; conditions: MDA-MB-134-VI (Luminal, ER+), 96 hours
Source text: as §1, §2, §3, §4

MDA-MB-435 = test: Growth inhibition assay for breast cancer; type: cell-based; conditions: MDA-MB-435 (Basal, TN), 96 hours
Source text: as §1, §2, §3, §4

MDA-MB-436 = test: Growth inhibition assay for breast cancer; type: cell-based; conditions: MDA-MB-436 (Basal, TN), 96 hours
Source text: as §1, §2, §3, §4

UACC-812 = test: Growth inhibition assay for breast cancer; type: cell-based; conditions: UACC-812 (Luminal, Her2+), 96 hours
Source text: as §1, §2, §3, §4

ZR-75-30 = test: Growth inhibition assay for breast cancer; type: cell-based; conditions: ZR-75-30 (Luminal, Her2+), 96 hours
Source text: as §1, §2, §3, §4

DLBCL = test: Phase 1/2 study Part B: tumor response, DLBCL; type: in vivo, human; conditions: 11 evaluable patients
Source text: (§5) In Part B, subjects may start Compound 1 at the MTD and/or a lower dose level based on safety, PK and PD data from Part A. Approximately 150 subjects will be treated and evaluated for safety and preliminary antitumor activity after every two cycles of therapy. Tumor types include non-small cell lung cancer (NSCLC), glioblastoma multiforme (GBM), hepatocellular carcinoma (HCC), gastrointestinal neuroendocrine tumor of non-pancreatic origin (NET), diffuse large B-cell lymphoma (DLBCL), multiple myeloma (MM), and hormone receptor positive breast cancer (HRPBC). Up to 20 subjects will be enrolled in each tumor type.
Subjects will be evaluated for efficacy every 2 cycles through cycle 6 and every 3 cycles thereafter. The primary efficacy variable is response. Tumor assessments, including imaging (CT, MRI and/or PET) of the chest and abdomen and other sites as appropriate, will be performed during Screening. Subjects with brain lesions will also have brain scans at Screening and during follow-up tumor assessments. After Screening, tumor assessments (for all tumors except multiple myeloma) will be performed on completion of Cycles 2, 4 and 6 (i.e., on Cycles 3, 5 and 7/Day 1±7 days) and then every 3 months thereafter (e.g., Cycle 10 and 13/Day 1±7 days). Tumor assessment (for multiple myeloma and only NHL/DLBCL with known or suspected marrow involvement) (bone marrow aspiration and biopsy, with PD biomarker analysis, cytogenetic analysis if abnormally present at Screening) will be performed on completion of Cycles 4, 8, 12 and 16 only (i.e., on Cycles 5, 9, 13 and 17/Day 1±7 days). Cytogenetics need not be repeated if normal at Screening. […] Subjects will be evaluated for tumor response on completion of Cycle 2, 4, 6, and so on. […]
(§6) For Part B, efficacy variables to be analyzed include tumor response at the end of treatment, the proportion of subject alive and progression-free, and duration of response. […]

NET = test: Phase 1/2 study Part B: tumor response, NET; type: in vivo, human
Source text: as §5
Subjects will be evaluated for efficacy every 2 cycles through cycle 6 and every 3 cycles thereafter. The primary efficacy variable is response. Tumor assessments, including imaging (CT, MRI and/or PET) of the chest and abdomen and other sites as appropriate, will be performed during Screening. Subjects with brain lesions will also have brain scans at Screening and during follow-up tumor assessments. After Screening, tumor assessments (for all tumors except multiple myeloma) will be performed on completion of Cycles 2, 4 and 6 (i.e., on Cycles 3, 5 and 7/Day 1±7 days) and then every 3 months thereafter (e.g., Cycle 10 and 13/Day 1±7 days). Tumor assessment (for multiple myeloma and only NHL/DLBCL with known or suspected marrow involvement) (bone marrow aspiration and biopsy, with PD biomarker analysis, cytogenetic analysis if abnormally present at Screening) will be performed on completion of Cycles 4, 8, 12 and 16 only (i.e., on Cycles 5, 9, 13 and 17/Day 1±7 days). Cytogenetics need not be repeated if normal at Screening. Tumor response will be based on Response Evaluation Criteria in Solid Tumors (RECIST 1.1), International Workshop Criteria (IWC) for NHL/DLBCL or International Uniform Response Criteria (IURC) for Multiple Myeloma, and RANO for GBM, using the post resection MRI scan as the baseline. Given the difficulty in assessing tumor response following salvage surgery, the primary efficacy endpoint for GBM will be the proportion of subjects progression-free at 6 months from Day 1 relative to efficacy evaluable subjects in the GBM type. Subjects will be evaluated for tumor response on completion of Cycle 2, 4, 6, and so on. A descriptive analysis of evidence of anti-tumor activity will be provided based on clinical and radiographic assessments by the investigator, which includes assessment of target lesion, non-target lesion, new lesion and overall response.
as §6

`CO[C@H]1CC[C@H](N2C(=O)CNc3ncc(-c4ccc(C(C)(C)O)nc4)nc32)CC1` [Compound 1, 7-(6-(2-hydroxypropan-2-yl)pyridin-3-yl)-1-((1r,4r)-4-methoxycyclohexyl)-3,4-dihydropyrazino-[2,3-b]pyrazin-2(1H)-one] was tested, and the GI50 (AU565) was 213 nM, the GI50 (BT-474) was 226 nM and the GI50 (EFM-19) was 57.2 nM. It also gave a GI50 (HCC1143) of 343 nM, a GI50 (HCC1428) of 98.4 nM and a GI50 (HCC1937) of 697 nM. The GI50 (MCF10A) was 147 nM, the GI50 (MCF7) was 181 nM and the GI50 (MDA-MB-134-VI) was 101 nM. For the same compound, the GI50 (MDA-MB-435) was 222 nM, the GI50 (MDA-MB-436) was 2990 nM and the GI50 (UACC-812) was 47.8 nM. The GI50 (ZR-75-30) was 63.4 nM, the “best target lesions responses (reduction)” value (DLBCL) was “up to 75%” and the “patients meeting Partial Response (RECIST 1.1)” value (DLBCL) was 2 patients. For the same compound, the “patients meeting at least Stable Disease (RECIST 1.1)” value (DLBCL) was 1 patient, the “tumor metabolic activity by PET imaging” value (NET; majority of subjects) was “reductions in tumor metabolic activity” and the “patients meeting Stable Disease (RECIST 1.1)” value (NET; patients with sufficient follow up) was “Six patients”. For the same compound, the “endocrine hormone markers (chromogranin, gastrin, serotonin, glucagon)” value (NET; some patients) was “reductions” and the carcinoid syndrome-related symptoms (NET; some patients with refractory baseline symptoms) was “improvements”.

— patent US9493466B2, “Treatment of cancer with TOR kinase inhibitors” (Signal Pharmaceuticals, LLC, priority 2011, dated 2016)
